Square brackets hold non-standard residues; d marks the D form. Peptide text beside a SMILES is read from it.
What was measured:
[1] = mouse plasma; conditions: C57BL/6 male and female mice, 37° C., up to 24 h
[2] = Ex-vivo stability in mouse whole blood, MALDI-TOF MS; type: in vitro ADME; conditions: both sexes, C57BL/6, 24 h incubation, read-out: decrease of signal
Protocol: (§1) The stability of D-AIP in mouse plasma, blood and liver S-9 fraction was investigated to ascertain the metabolic resistance towards proteases and enzymatic activities in these matrices. Whole mouse blood obtained from healthy C57BL/6 male and female mice (6 mice in total) were collected in lithium heparin containing tubes, pooled and stored at 4° C. prior to its use. A fraction of the pooled blood was immediately centrifuged at 1500×g for 10 min at 4° C. to obtain the plasma. The whole blood and plasma samples were spiked with PBS (as control) or AIP (L-AIP, D-AIP or sD-AIP respectively) to make a final concentration of 1 ug/mL and incubated at 37° C. Initial samples were withdrawn to represent t=0 prior to incubation and others were withdrawn 1, 3 and 24 h respectively. Fresh mouse liver also obtained from C57BL/6 male and female mice were pooled, homogenized in 0.15 M Potassium chloride (KCl) and centrifuged at 9000×g. The supernatant represents liver homogenate (S-9) fraction which was mixed with other buffers to formulate the liver S-9 mix as previously described (Kolrep et al., 2017, Toxicol In Vitro, 42:161-170). Liver S-9 mix were spiked with AIP to make a final concentration of 1 μg/mL (L-AIP, D-AIP or sD-AIP respectively) and incubated at 37° C. Just after the addition of NADPH, 100 μL aliquot which represents t=0 samples were withdrawn and others were sampled accordingly at predetermined time points. 400 μL of ice cold MeOH was added to the spiked plasma, blood or liver S-9 fraction respectively, to precipitate the microsomal protein. The samples were then vigorously mixed for 30 s to facilitate extraction and centrifuged for 10 minutes at 13000 rpm, the supernatant was subjected to sample clean up by C18 ZipTip (EMD Millipore Corporation), the eluates were spotted with CHCA matrix on the ground steel MALDI-TOF target and analyzed with MALDI-TOF MS. Applying the t=0 peak area as 100% the intensities of the other time points were compared relatively for interpretation. […]

[3] = Ex-vivo stability in mouse liver S9-fraction, MALDI-TOF MS; type: in vitro ADME, C57BL/6 mice; conditions: mouse liver S-9 fraction, after 24 h
Protocol: as §1

[4] = tested on: metalloproteases; assay: Metalloprotease inhibition in BACE1-overexpressing SH-SY5Y cells, 4-plex MSD; type: cell-based, human; conditions: supernatant
From the text: (§2) Using the ELISA Conversion Kit from Meso Scale Discovery (MSD, USA), an electrochemiluminescence-based assay was developed (neo-epitope specific Aβ34 and the sulfo-tagged 6E10 (binds to the N-terminus of human Aβ) or the sulfo-tagged 4G8 for murine samples (binds to the mid domain of Aβ)). High-bind or custom-printed 4-plex plates (using the mab34, 4G8 (Biolegend) for pan-Aβ assay, G2−10 for 1-plex Aβ40 assay, and MSD's validated mouse monoclonal anti-Aβ38, anti-Aβ40, as well as anti-Aβ42 antibodies, see MSD Aβ peptide V-PLEX) were blocked (MSD 5% Blocker A in PBS) for 1 h at 22° C. and washed three times with PBS-T for 1 min. at 22° C., loaded with SULFO-TAG™ 6E10 or 4G8 detection antibody (diluted to 1× in MSD Diluent 100) and sample or peptide calibrator (in MSD Diluent 35 or cell culture medium), and incubated for 16 h at 4° C. with shaking at 600 rpm. After three washing steps with PBS-T for 1 min. at 22° C., 150 μL 2×MSD read buffer were added per well. All plates were read using a MSD QuickPlex SQ 120 Imager and data analyzed using MSD Workbench® software. Standard curves were fitted using a non-linear four-parameter logistic fit with 1/y^2 weighting. The equation is: […]

[5] = tested on: metalloproteases; assay: Metalloprotease inhibition in APP-overexpressing SH-SY5Y cells, 4-plex MSD; type: cell-based, human; conditions: supernatant
From the text: as §2

D-amino acids of RGTFEGKF (H-[dR]G[dT][dF][dE]G[dK][dF]-OH; N-terminus and C-terminus assumed; SMILES C[C@H](O)[C@@H](NC(=O)CNC(=O)[C@H](N)CCCNC(=N)N)C(=O)N[C@H](Cc1ccccc1)C(=O)N[C@H](CCC(=O)O)C(=O)NCC(=O)N[C@H](CCCCN)C(=O)N[C@H](Cc1ccccc1)C(=O)O)
not cleaved [1]: relatively stable over 24 h in mouse plasma

C[C@H](O)[C@@H](NC(=O)[C@@H](Cc1ccccc1)NC(=O)[C@@H](CCCCN)NC(=O)[C@@H](CCCNC(=N)N)NC(=O)[C@@H](Cc1ccccc1)NC(=O)[C@H](N)CCC(=O)O)C(=O)NCC(=O)NCC(=O)O [sD-AIP, reference compound] (H-[dE][dF][dR][dK][dF][dT]GG-OH; N-terminus and C-terminus assumed)
metabolised at 24 h, 1 ug/mL [2]: ~50% | signal intensity compared to the unincubated sample [3]: four-fold reduced intensity

CC(C)C[C@H](NP(=O)(O)O[C@@H]1O[C@@H](C)[C@H](O)[C@@H](O)[C@H]1O)C(=O)N[C@@H](Cc1c[nH]c2ccccc12)C(=O)O [PA, phosphoramidon]
Aβ38, Aβ40, and Aβ42 levels [4]: not significantly changed | increase of Aβ34 [4]: about 2.5 fold | increase of Aβ34 [5]: approximately 9 fold | increase of Aβ38, Aβ40, and Aβ42 [5]: 2-3 fold

Source: patent publication US12613249B2 (THE ROYAL INSTITUTION FOR THE ADVANCEMENT OF LEARNING / …, priority 2019, dated 2026)
